Experimental data as given in the Deep4Chem optical property database.

Experiment: photoluminescence quantum yield (fraction); solvent given as SMILES
[1] = in c1cc(-c2cccc(-n3c4ccccc4c4ccccc43)c2)cc(-n2c3ccccc3c3ccccc32)c1

Structure (SMILES): c1ccc(N(c2ccccc2)c2ccc(-c3ccc(-c4nc(-c5ccccn5)n(-c5ccccc5)n4)cc3)cc2)cc1
- photoluminescence quantum yield (in ClCCl): 0.392

Structure (SMILES): CCOc1cccc2c1O[B-](F)(F)[n+]1c3c(c4c(c1-2)-c1ccccc1CC4)-c1ccccc1CC3
- photoluminescence quantum yield (in ClCCl): 0.16

Structure (SMILES): O=[N+]([O-])c1ccc([N+]2=Cc3ccc4ccccc4c3O[B-]2(F)F)cc1
- photoluminescence quantum yield (in ClCCl): 0.9

Structure (SMILES): CCCCCCn1c2cc(/C=C(\C#N)c3ccccc3)ccc2c2ccc(/C=C(\C#N)c3ccccc3)cc21
- photoluminescence quantum yield (in ClC(Cl)Cl): 0.026

Structure (SMILES): Clc1nc(Cl)nc(Nc2ccc3c4cccc5cccc(c6cccc2c63)c54)n1
- photoluminescence quantum yield (in C1COCCO1): 0.068
- photoluminescence quantum yield (in CC#N): 0.011
- photoluminescence quantum yield (in CCCCOCCCC): 0.12
- photoluminescence quantum yield (in CCOC(C)=O): 0.014

Structure (SMILES): COc1ccc(C(=O)NC(C)(C)C)c2c1ccc1c3ccccc3c3ccccc3c12
- photoluminescence quantum yield (in ClCCl): 0.1

Structure (SMILES): CCCCCCCCCCCCN1C(=O)c2c(c3ccc4cc(-c5ccc(F)cc5)c(OC)cc4c3c3c2ccc2cc(-c4ccc(F)cc4)c(OC)cc23)C1=O
- photoluminescence quantum yield (in ClCCl): 0.153

Structure (SMILES): C(#Cc1ncc(-c2ccccc2)o1)c1cccnc1
- photoluminescence quantum yield (in ClCCl): 0.13

Structure (SMILES): CCn1c2ccccc2oc2c(C#N)c3c(oc4ccccc4n3CC)c(C#N)c21
- photoluminescence quantum yield (in ClC(Cl)Cl): 0.44

Structure (SMILES): CCOC(=O)/N=c1/oc2ccc(OC)cc2cc1C#N
- photoluminescence quantum yield (in ClCCl): 0.047

Structure (SMILES): CN(C)c1ccc(/C=C/c2ccncn2)cc1
- photoluminescence quantum yield (in ClCCl): 0.15

Structure (SMILES): CC[n+]1nc2cc3c4c(c2c2cc(C)ccc21)CCCN4CCC3
- photoluminescence quantum yield (in O): 0.27

Structure (SMILES): c1ccc(-c2cc(-c3ccccc3)cc(-c3ccccc3)c2)cc1
- photoluminescence quantum yield (in C1COCCO1): 0.1

Structure (SMILES): CC(C)(C)c1ccc2c(c1)c1cc(C(C)(C)C)ccc1n2-c1cc(C(=O)c2cccnc2)cc(-n2c3ccc(C(C)(C)C)cc3c3cc(C(C)(C)C)ccc32)c1
- photoluminescence quantum yield (in Cc1ccccc1): 0.07
- photoluminescence quantum yield [1]: 0.92

Structure (SMILES): CC/[NH+]=c1\cc2oc3cc(NCCO)c4ccccc4c3nc-2cc1C
- photoluminescence quantum yield (in CCO): 0.49
- photoluminescence quantum yield (in O): 0.36

Structure (SMILES): c1ccc(-[c+]2c3ccccc3oc3ccccc32)cc1
- photoluminescence quantum yield (in CC#N): 0.47

Structure (SMILES): CC[N+](CC)=c1ccc2nc3c(cc(NCCC(=O)NC(C)C(=O)OC)c4ccccc43)oc-2c1 (stereo not drawn)
- photoluminescence quantum yield (in CCO): 0.18
- photoluminescence quantum yield (in O): 0.13

Structure (SMILES): Clc1ccc(C2=C(c3ccc(Cl)cc3)c3cccc4c3c(cc3nc5ccccc5nc34)O2)cc1
- photoluminescence quantum yield (in ClCCl): 0.37

Structure (SMILES): CCN(CC)c1ccc(/C=N/c2ccccc2/N=C/c2ccc(N(CC)CC)cc2O)c(O)c1
- photoluminescence quantum yield (in CC#N): 0.22

Structure (SMILES): CCCCCCCCC1(CCCCCCCC)c2ccccc2-c2ccc(-c3nnc(-c4ccc(-n5c6ccc(C(C)(C)C)cc6c6cc(C(C)(C)C)ccc65)cc4)o3)cc21
- photoluminescence quantum yield (in Cc1ccccc1): 0.88

Structure (SMILES): [O-]c1ccccc1-c1[nH+]c2c3ccccc3c3ccccc3c2n1-c1ccccc1
- photoluminescence quantum yield (in Cc1ccccc1): 0.191

Structure (SMILES): COc1cc(OC)cc(C2=[O+][B-](F)(F)OC(c3ccc4ccccc4c3)=C2)c1
- photoluminescence quantum yield (in CC#N): 0.01
- photoluminescence quantum yield (in CC(C)=O): 0.01
- photoluminescence quantum yield (in CCCCCC): 0.19
- photoluminescence quantum yield (in Cc1ccccc1): 0.1
- photoluminescence quantum yield (in ClCCl): 0.05

Structure (SMILES): CCCCc1ccc(-n2c3c4cc(F)ccc4nnc3c3c2c2nnc4ccc(F)cc4c2n3-c2ccc(CCCC)cc2)cc1
- photoluminescence quantum yield (in Cc1ccccc1): 0

Structure (SMILES): COc1ccc2c(-c3nc(-c4cccc(Br)c4)no3)cc(=O)oc2c1
- photoluminescence quantum yield (in CCO): 0.41
- photoluminescence quantum yield (in ClC(Cl)Cl): 0.33

Structure (SMILES): CC1=C(c2ccccc2)C(C)=[N+]2C1=C(c1ccccc1)c1c(C)c(-c3ccccc3)c(C)n1[B-]2(F)F
- photoluminescence quantum yield (in Cc1ccccc1): 0.325

Structure (SMILES): CN(C)c1ccc(-c2cc(-c3cccs3)nc(-c3ccccc3)n2)cc1
- photoluminescence quantum yield (in ClC(Cl)Cl): 0.46

Structure (SMILES): COc1ccccc1-c1c2ccc(=[N+]3CCCCC3)cc-2oc2cc(N3CCCCC3)ccc12
- photoluminescence quantum yield (in CCO): 0.36
- photoluminescence quantum yield (in ClCCl): 0.92

Structure (SMILES): CCCCCCCCc1ccc(-c2c3cc(-c4cc(CCCCCCCC)c(-c5ccc(-c6sc(/C=C7\SC(N8CCCCC8)=NC7=O)cc6CCCCCCCC)s5)s4)sc3c(-c3ccc(CCCCCCCC)s3)c3cc(-c4cc(CCCCCCCC)c(-c5ccc(-c6sc(/C=C7\SC(N8CCCCC8)=NC7=O)cc6CCCCCCCC)s5)s4)sc23)s1
- photoluminescence quantum yield (in C1CCOC1): 0.214
- photoluminescence quantum yield (in Cc1ccccc1): 0.211
- photoluminescence quantum yield (in ClC(Cl)Cl): 0.128
- photoluminescence quantum yield (in ClCCl): 0.144
- photoluminescence quantum yield (in Clc1ccccc1): 0.186

Structure (SMILES): CCCCCCCCCC[n+]1cc2ccc3c[n+](CCCCCCCCCC)cc4ccc(c1)c2c34
- photoluminescence quantum yield (in CC#N): 0.5

Structure (SMILES): CC(=O)c1ccn2c3c(c(/C=C/c4cc[n+](C)cc4)c2c1)CN(C)C3=O
- photoluminescence quantum yield (in O): 0.041

Structure (SMILES): N#Cc1ccc(/C=C/c2ncc(-c3ccccc3)o2)cc1
- photoluminescence quantum yield (in ClCCl): 0.65

Structure (SMILES): N#Cc1nc(-c2ccc(N3c4ccccc4Oc4ccccc43)cc2)c(-c2ccc(N3c4ccccc4Oc4ccccc43)cc2)nc1C#N
- photoluminescence quantum yield [1]: 0.15

Structure (SMILES): N#Cc1ccc(N)cc1
- photoluminescence quantum yield (in C1CCCCC1): 0.13
- photoluminescence quantum yield (in CC#N): 0.12
- photoluminescence quantum yield (in CCCCCC): 0.09
- photoluminescence quantum yield (in CCO): 0.041
- photoluminescence quantum yield (in O): 0.0046
- photoluminescence quantum yield (in OCC(F)(F)F): 0.0052

Structure (SMILES): Cc1ccccc1C1=C2C=CC(=[N+](C)C)C=[C]2[Ge]([CH3])([CH3])[c]2cc(N(C)C)ccc21
- photoluminescence quantum yield (in O): 0.34

Structure (SMILES): CC(C)(C)NC(=O)c1ccc(-c2cc3ccccc3o2)c2ccc3c4ccccc4c4ccccc4c3c12
- photoluminescence quantum yield (in ClCCl): 0.44

Structure (SMILES): O=C(c1ccc(/C(=C(/c2ccccc2)c2ccc(C(=O)c3ccc(-n4c5ccccc5c5ccccc54)cc3)cc2)c2ccccc2)cc1)c1ccc(-n2c3ccccc3c3ccccc32)cc1
- photoluminescence quantum yield (in C1CCOC1): 0.268

Structure (SMILES): CCCCCCCCCCCCCCCCCCOC(=O)/C=C/C1=CC2=C(c3c(C)cc(C)cc3C)c3cc(/C=C/C(=O)OCCCCCCCCCCCCCCCCCC)cn3[B-](F)(F)[N+]2=C1
- photoluminescence quantum yield (in ClCCl): 0.34
